Experimental data published in PMC13303826, “Nicotinonitrile based dual inhibitors of tubulin and topoisomerase II exhibit potent anticancer activity” (Scientific Reports, 2026).

Columns and labels:
[1] = system: MCF7 cells; assay: LDH release cytotoxicity assay, MCF7; type: cell-based; conditions: Homo sapiens, 48 h, mean ± SD, read-out: In vitro cytotoxicity IC50 µM ± SD, MCF7
Experimental: (§1) HepG2 (Human liver carcinoma), HCT116 (human colorectal carcinoma), MCF7 (human breast adenocarcinoma), and the normal human skin fibroblast (BJ-1) cell lines were purchased from the american type culture collection (Rockville, MD, USA) and maintained in RPMI-1640 medium which was supplemented with 10% heat-inactivated FBS, 100U/ml penicillin and 100U/ml streptomycin. The cells were grown at 37 °C in a humidified atmosphere of 5% CO2. All experiments were conducted thrice in triplicate (n = 3). All the values were represented as means ± SD. Significant differences between the means of parameters as well as IC50s were determined by probit analysis using SPSS software program (SPSS Inc., Chicago, IL).
(§2) To determine the effect of each synthesized compound on membrane permeability in HepG2, MCF-7 and HCT116 cancer cell lines as well as BJ-1 normal cell line, a lactate dehydrogenase (LDH) release assay was used[29]–[33]. The cells were seeded in 24-well culture plates at a density of 1 × 10^4 cells/well in 500 µL volume and allowed to grow for 18 h before treatment. After treatment with a series of different concentrations of each compound or DOX (positive control), the plates were incubated for 48 h. Then, the supernatant (40 µL) was transferred to a new 96 well to determine LDH release and 6% triton X-100 (40 µL) was added to the original plate for determination of total LDH. An aliquot of 0.1 M potassium phosphate buffer (100 µL, pH 7.5) containing 4.6 mM pyruvic acid was mixed to the supernatant using repeated pipetting. Then, 0.1 M potassium phosphate buffer (100 µL, pH 7.5) containing 0.4 mg/mL reduced β-NADH was added to the wells. The kinetic changes were read for 1 min using ELISA microplate reader in absorbance at wavelength 340 nm. This procedure was repeated with 40 µL of the total cell lysate to determine total LDH. The percentage of LDH release was determined by dividing the LDH released into the media by the total LDH following cell lysis in the same well. The cell Passage numbers for MCF 7 = P13, Hep G2 = P15, HCT 116 = P 9.
(§3) All experiments were conducted in triplicate (n = 3). All the values were represented as mean ± SD. Significant differences between the means of parameters as well as IC50s were determined by probit analysis using SPSS software program (SPSS Inc., Chicago, IL).

[2] = system: HCT116 cells; assay: LDH release cytotoxicity assay, HCT116; type: cell-based; conditions: Homo sapiens, HCT-116, 48 h, mean ± SD, read-out: In vitro cytotoxicity IC50 µM ± SD, HCT116
Experimental: as §1, §2, §3

[3] = system: HepG2 cells; assay: LDH release cytotoxicity assay, HepG2; type: cell-based; conditions: Homo sapiens, 48 h, mean ± SD, read-out: In vitro cytotoxicity IC50 µM ± SD, HepG2
Experimental: as §1, §2, §3

[4] = system: Topo II; assay: Inhibition of topoisomerase II in MCF-7 cells (TOP2B sandwich ELISA); type: cell-based, human; conditions: MCF7 cells, concentration not given
Experimental: Mouse TOP2B/Topoisomerase II Beta ELISAKit (Sandwich ELISA) is designed for the quantitative measurement of Topo II enzyme.
This assay is based on the sandwich ELISA principle. Each well of the supplied microtiter plate has been pre-coated with a target specific capture antibody. Standards or samples are added to the wells, and the target antigen binds to the capture antibody. Unbound standard or sample is washed away. A biotin-conjugated detection antibody is then added which binds to the captured antigen. Unbound detection antibody is washed away. An avidin-horseradish peroxidase (HRP) conjugate is then added which binds to the biotin. Unbound avidin-HRP conjugate is washed away. A TMB substrate is then added which reacts with the HRP enzyme resulting in color development. A sulfuric acid stop solution is added to terminate color development reaction and then the optical density (OD) of the well is measured at a wavelength of 450 nm ± 2 nm. An OD standard curve is generated using known antigen concentrations; the OD of an unknown sample can then be compared to the standard curve to determine its antigen concentration. Each experiment was repeated two times (Table 3).

[5] = system: beta-tubulin; assay: Inhibition of tubulin polymerization in MCF-7 cells (beta-tubulin SimpleStep ELISA); type: cell-based, human; conditions: MCF7 cells, concentration not given
Text: Beta-tubulin in vitro simple step ELISA® (Enzyme-Linked Immunosorbent Assay) kit is designed for quantitative measurement of beta-tubulin protein in human cell and tissue homogenate extract samples.
The SimpleStep ELISA® employs an affinity tag labeled capture antibody and a reporter conjugated detector antibody which immunocapture the sample analyte in solution. This entire complex (capture antibody/analyte/detector antibody) is in turn immobilized via immunoaffinity of an anti-tag antibody coating the well. To perform the assay, samples or standards are added to the wells, followed by the antibody mix. After incubation, the wells are washed to remove unbound material. TMB development solution is added and during incubation is catalyzed by horseradish peroxidase (HRP), generating blue coloration. This reaction is then stopped by addition of stop solution completing any color change from blue to yellow. Signal is generated proportionally to the amount of bound analyte and the intensity is measured at 450 nm. Optionally, instead of the endpoint reading, development of TMB can be recorded kinetically at 600 nm. The concentration of beta-tubulin protein in the samples is determined by comparing the optical density (OD) of the samples to the standard curve. Each experiment was repeated two times (Table 2).

[6] = system: BJ1 normal cells; assay: LDH release cytotoxicity assay, normal skin fibroblasts BJ1; type: cell-based, human; conditions: non-tumor BJ1 fibroblasts
Experimental: as §1, §2, §3

In the case of `COc1ccc(-c2cc(-c3cc(OC)c(OC)c(OC)c3)c(C#N)c(Cl)n2)cc1` [Compound 18, 2-Chloro-6-(4-methoxyphenyl)-4-(3,4,5-trimethoxyphenyl)nicotinonitrile], the IC50 [1] is reported as 2.9 ± 0.2 µM, the IC50 [2] is reported as 45.6 ± 4.1 µM and the IC50 [3] is reported as 26.2 ± 2.5 µM.

`COc1ccc(-c2cc(-c3cc(OC)c(OC)c(OC)c3)c(C#N)c(Cl)n2)cc1OC` [Compound 19, 2-Chloro-6-(3,4-dimethoxyphenyl)-4-(3,4,5trimethoxyphenyl)nicotinonitrile] showed an IC50 [1] of 2.7 ± 0.2 µM, an IC50 [2] of 44.1 ± 4.7 µM and an IC50 [3] of 24.1 ± 2.2 µM.

Molecule `COc1cc(OC)cc(-c2cc(-c3ccc(OC)c(OC)c3)nc(Cl)c2C#N)c1` [Compound 21, 2-Chloro-6-(3,4-dimethoxyphenyl)-4-(3,5-dimethoxyphenyl)nicotinonitrile] has an IC50 [1] of 2.8 ± 0.2 µM, an IC50 [2] of 48.1 ± 4.2 µM and an IC50 [3] of 12.3 ± 1.5 µM.

`COc1ccc(-c2cc(-c3cc(OC)cc(OC)c3)c(C#N)c(Cl)n2)cc1` [Compound 22, 2-Chloro-4-(3,5-dimethoxyphenyl)-6-(4-methoxyphenyl)nicotinonitrile] was tested, and the IC50 [1] was 2.6 ± 0.2 µM, the IC50 [2] was 36.8 ± 3.5 µM and the “Topo II % inhibition” value [4] was 42%. For the same molecule, the “tubulin polymerization % inhibition” value [5] was 70.9% and the IC50 [3] was 25.3 ± 2.3 µM.

Molecule `COc1ccc(-c2cc(-c3ccc(OC)c(OC)c3)nc(Cl)c2C#N)cc1` [Compound 23, 2-Chloro-6-(3,4-dimethoxyphenyl)-4-(4-methoxyphenyl)nicotinonitrile] has an IC50 [1] of 2.6 ± 0.2 µM, an IC50 [2] of 49.1 ± 5.1 µM and an IC50 [3] of 29.4 ± 2.3 µM.

With `COc1cc(-c2cc(-c3ccco3)c(C#N)c(Cl)n2)cc(OC)c1OC` [Compound 24, 2-Chloro-4-(furan-2-yl)-6-(3,4,5-trimethoxyphenyl)nicotinonitrile] the IC50 [1] was 2.5 ± 0.2 µM, the IC50 [2] was 49.3 ± 4.2 µM and the “Topo II % inhibition” value [4] was 55.3%. The “tubulin polymerization % inhibition” value [5] was 55.4% and the IC50 [3] was 22.7 ± 2.1 µM.

With `COc1ccc(-c2cc(-c3cc(OC)c(OC)c(OC)c3)c(C#N)c3nnnn23)cc1OC` [Compound 27, 5-(3,4-dimethoxyphenyl)-7-(3,4,5-trimethoxyphenyl)tetrazolo[1,5-a]pyridine-8-carbonitrile] the IC50 [1] was 2.5 ± 0.2 µM, the IC50 [2] was 60.1 ± 6.2 µM and the “tubulin polymerization % inhibition” value [5] was 49.8%. The IC50 [3] was 25.5 ± 2.4 µM.

In the case of `COc1cc(-c2cc(-c3cc(OC)c(OC)c(OC)c3)n3nnnc3c2C#N)cc(OC)c1OC` [Compound 28, 5,7-bis(3,4,5-trimethoxyphenyl)tetrazolo[1,5-a]pyridine-8-carbonitrile], the IC50 [1] is reported as 3 ± 0.2 µM, the IC50 [2] is reported as 78.6 ± 5.9 µM and the IC50 [3] is reported as 29.9 ± 3.1 µM.

`COc1cc(OC)cc(-c2cc(-c3ccc(OC)c(OC)c3)n3nnnc3c2C#N)c1` [Compound 29, 5-(3,4-dimethoxyphenyl)-7-(3,5-dimethoxyphenyl)tetrazolo[1,5-a]pyridine-8-carbonitrile] was tested, and the IC50 [1] was 3.1 ± 0.3 µM, the IC50 [2] was 55.4 ± 5.1 µM and the IC50 [3] was 27.1 ± 2.5 µM.

`COc1ccc(-c2cc(-c3cc(OC)cc(OC)c3)c(C#N)c3nnnn23)cc1` [Compound 30, 7-(3,5-dimethoxyphenyl)-5-(4-methoxyphenyl)tetrazolo[1,5-a]pyridine-8-carbonitrile] was tested, and the IC50 [1] was 3.2 ± 0.2 µM, the IC50 [2] was 40.5 ± 3.3 µM and the IC50 [3] was 27.1 ± 2.2 µM.

`COc1ccc(-c2cc(-c3ccc(OC)c(OC)c3)n3nnnc3c2C#N)cc1` [Compound 31, 5-(3,4-dimethoxyphenyl)-7-(4-methoxyphenyl)tetrazolo[1,5-a]pyridine-8-carbonitrile] showed an IC50 [1] of 3.1 ± 0.3 µM, an IC50 [2] of 31 ± 2.5 µM and an IC50 [3] of 25.7 ± 2.4 µM.

In the case of `COc1cc(-c2cc(-c3ccco3)c(C)c3nnnn23)cc(OC)c1OC` [Compound 32, 7-(furan-2-yl)-8-methyl-5-(3,4,5-trimethoxyphenyl)tetrazolo[1,5-a]pyridine], the IC50 [1] is reported as 3 ± 0.3 µM, the IC50 [2] is reported as 98 ± 8.6 µM and the IC50 [3] is reported as 28.2 ± 2.5 µM.

In the case of `Cc1cc(-c2ccco2)c(C#N)c2nnnn12` [Compound 33, 7-(furan-2-yl)-5-methyltetrazolo[1,5-a]pyridine-8-carbonitrile], the IC50 [1] is reported as 2.6 ± 0.2 µM, the IC50 [2] is reported as 40.7 ± 3.9 µM and the “tubulin polymerization % inhibition” value [5] is reported as 68.9%. For the same molecule, the IC50 [3] was 25.2 ± 2.5 µM.

Molecule `COc1ccc(-c2cc(-c3cc(OC)c(OC)c(OC)c3)c(C#N)c(N=P(c3ccccc3)(c3ccccc3)c3ccccc3)n2)cc1` [Compound 34, 6-(4-Methoxyphenyl)-4-(3,4,5-trimethoxyphenyl)-2-((triphenyl-λ^5-phosphaneylidene)amino)-nicotinonitrile] has an IC50 [1] of 5.1 ± 0.2 µM, an IC50 [2] of 49.9 ± 4.2 µM and an IC50 [3] of 28.4 ± 2.3 µM.

`COc1ccc(-c2cc(-c3cc(OC)c(OC)c(OC)c3)c(C#N)c(N=P(c3ccccc3)(c3ccccc3)c3ccccc3)n2)cc1OC` [Compound 35, 6-(3,4-Dimethoxyphenyl)-4-(3,4,5-trimethoxyphenyl)-2-((triphenyl-λ^5-phosphaneylidene)-amino)nicotinonitrile] was tested, and the IC50 [1] was 2.7 ± 0.1 µM, the IC50 [2] was 57.6 ± 4.1 µM and the “tubulin polymerization % inhibition” value [5] was 61.9%. For the same molecule, the IC50 [3] was 32.4 ± 3.1 µM.

Work on `COc1cc(-c2cc(-c3cc(OC)c(OC)c(OC)c3)c(C#N)c(N=P(c3ccccc3)(c3ccccc3)c3ccccc3)n2)cc(OC)c1OC` [Compound 36, 4,6-Bis(3,4,5-trimethoxyphenyl)-2-((triphenyl-λ^5-phosphaneylidene)amino)nicotinonitrile] yielded an IC50 [1] of 3 ± 0.1 µM, an IC50 [2] of 41.7 ± 4.1 µM and an IC50 [3] of 25.2 ± 2.1 µM.

For `COc1cc(OC)cc(-c2cc(-c3ccc(OC)c(OC)c3)nc(N=P(c3ccccc3)(c3ccccc3)c3ccccc3)c2C#N)c1` [Compound 37, 6-(3,4-Dimethoxyphenyl)-4-(3,5-dimethoxyphenyl)-2-((triphenyl-λ^5-phosphaneylidene)amino)-nicotinonitrile], the IC50 [1] was 2.6 ± 0.1 µM, the IC50 [2] was 36 ± 3.3 µM and the “Topo II % inhibition” value [4] was 82.4%. The “tubulin polymerization % inhibition” value [5] was 74.3% and the IC50 [3] was 29.3 ± 2.5 µM.

With `COc1ccc(-c2cc(-c3ccc(OC)c(OC)c3)nc(N=P(c3ccccc3)(c3ccccc3)c3ccccc3)c2C#N)cc1` [Compound 39, 6-(3,4-Dimethoxyphenyl)-4-(4-methoxyphenyl)-2-((triphenyl-λ^5-phosphaneylidene)amino)-nicotinonitrile] the IC50 [1] was 3 ± 0.1 µM, the “Cytotoxicity / selectivity toward BJ1 normal cells (in words)” value [6] was “good selectivity” and the IC50 [2] was 32.5 ± 3.2 µM. For the same molecule, the IC50 [3] was 12.6 ± 1.1 µM.

`COc1cc(-c2cc(-c3ccco3)c(C#N)c(N=P(c3ccccc3)(c3ccccc3)c3ccccc3)n2)cc(OC)c1OC` [Compound 40, 4-(Furan-2-yl)-6-(3,4,5-trimethoxyphenyl)-2-((triphenyl-λ^5-phosphaneylidene)amino)nicotino-nitrile] showed an IC50 [1] of 5.7 ± 0.2 µM, an IC50 [2] of 55.7 ± 4.9 µM and an IC50 [3] of 27.7 ± 2.1 µM.

In the case of `COc1cccc2c1C(=O)c1c(O)c3c(c(O)c1C2=O)C[C@@](O)(C(=O)CO)C[C@@H]3O[C@H]1C[C@H](N)[C@H](O)[C@H](C)O1` [DOX, doxorubicin, reference compound], the IC50 [1] is reported as 2.8 ± 0.3 µM, the IC50 [2] is reported as 12.5 ± 1.5 µM and the “Topo II % inhibition” value [4] is reported as 81.6%. The IC50 [3] was 2.6 ± 0.2 µM.
